The values below come from patent publication US20210395239A1 (Hoffmann-La Roche Inc., priority 2018, published 2021).

The assay addresses T1, human TLR8 (Homo sapiens, UniProt Q9NR97).
T1 construct: host or cells: HEK293 (HEK-Blue hTLR8)
T1 sequence (Q9NR97 27-1041): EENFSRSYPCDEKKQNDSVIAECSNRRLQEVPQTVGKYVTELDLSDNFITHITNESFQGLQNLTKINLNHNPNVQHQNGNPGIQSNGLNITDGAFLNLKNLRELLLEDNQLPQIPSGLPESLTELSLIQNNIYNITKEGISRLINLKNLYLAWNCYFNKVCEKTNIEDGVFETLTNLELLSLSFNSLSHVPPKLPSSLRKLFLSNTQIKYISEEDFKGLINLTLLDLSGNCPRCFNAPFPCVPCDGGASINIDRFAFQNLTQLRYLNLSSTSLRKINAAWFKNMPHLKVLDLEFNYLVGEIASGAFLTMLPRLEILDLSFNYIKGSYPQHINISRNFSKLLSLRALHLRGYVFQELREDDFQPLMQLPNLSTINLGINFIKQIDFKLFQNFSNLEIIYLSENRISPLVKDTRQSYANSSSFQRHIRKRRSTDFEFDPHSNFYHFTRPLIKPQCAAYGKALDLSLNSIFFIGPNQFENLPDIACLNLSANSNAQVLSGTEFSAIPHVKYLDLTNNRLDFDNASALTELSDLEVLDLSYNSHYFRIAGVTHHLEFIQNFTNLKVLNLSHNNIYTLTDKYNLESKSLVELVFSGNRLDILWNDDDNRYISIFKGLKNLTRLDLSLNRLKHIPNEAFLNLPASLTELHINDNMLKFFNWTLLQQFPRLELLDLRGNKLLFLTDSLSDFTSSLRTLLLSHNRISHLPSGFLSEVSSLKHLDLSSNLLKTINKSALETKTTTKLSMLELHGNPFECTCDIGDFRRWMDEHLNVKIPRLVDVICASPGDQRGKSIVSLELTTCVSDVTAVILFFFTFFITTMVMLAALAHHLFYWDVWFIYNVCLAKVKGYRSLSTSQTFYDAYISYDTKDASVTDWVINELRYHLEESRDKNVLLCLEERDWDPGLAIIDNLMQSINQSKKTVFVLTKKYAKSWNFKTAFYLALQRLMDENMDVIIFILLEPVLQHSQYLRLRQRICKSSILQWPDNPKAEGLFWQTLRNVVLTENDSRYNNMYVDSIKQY
In words: HEK293-Blue-hTLR-8 cells assay (SEAP reporter, R848 stimulation). Format: cell-based. The conditions noted are these: HEK293-Blue-hTLR8 cells, R848, 20 hrs; read-out: HEK/hTLR8 IC50. An excerpt: HEK293-Blue-hTLR-8 Cells Assay:
A stable HEK293-Blue-hTLR-8 cell line was purchased from InvivoGen (Cat. #: hkb-ht1r8, San Diego, Calif., USA). These cells were originally designed for studying the stimulation of human TLR8 by monitoring the activation of NF-κB. A SEAP (secreted embryonic alkaline phosphatase) reporter gene was placed under the control of the IFN-β minimal promoter fused to five NF-κB and AP-1-binding sites. The SEAP was induced by activating NF-κB and AP-1 via stimulating HEK-Blue hTLR8 cells with TLR8 ligands. Therefore the reporter expression was declined by TLR8 antagonist under the stimulation of a ligand, such as R848, for incubation of 20 hrs. The cell culture supernatant SEAP reporter activity was determined using QUANTI-Blue™ kit (Cat. #: rep-qb1, Invivogen, San Diego, Ca, USA) at a wavelength of 640 nm, a detection medium that turns purple or blue in the presence of alkaline phosphatase.
HEK293-Blue-hTLR8 cells were incubated at a density of 250,000˜450,000 cells/mL in a volume of 170 μL in a 96-well plate in Dulbecco's Modified Eagle's medium (DMEM) containing 4.5 g/L glucose, 50 U/mL penicillin, […], […], 2 mM L-glutamine, 10% (v/v) heat-inactivated fetal bovine serum with addition of 20 μL test compound in a serial dilution in the presence of final DMSO at 1% and 10 μL of 60 uM R848 in above DMEM, perform incubation under 37° C. in a CO2 incubator for 20 hrs. Then 20 μL of the supernatant from each well was incubated with 180 μL Quanti-blue substrate solution at 37° C. for 2 hrs and the absorbance was read at 620˜655 nm using a spectrophotometer. The signaling pathway that TLR8 activation leads to downstream NF-κB activation has been widely accepted, and therefore similar reporter assay was modified for evaluating TLR8 antagonist.
As for `[2H]c1ccc2c(N3C[C@H](CN4CCN(c5ccc(N6C[C@H](N)[C@@H](F)C6)nc5)CC4)O[C@H](C)C3)ccc(C#N)c2n1` [Example 150, 5-[(2S,6R)-2-[[4-[6-[(3S,4S)-3-amino-4-fluoro-pyrrolidin-1-yl]-3-pyridyl]piperazin-1-yl]methyl]-6-methyl-morpholin-4-yl]-2-deuterio-quinoline-8-carbonitrile], the IC50 amounted to 7 nM.

Consider `CO[C@H]1CN(c2nccc(N3CCN(C[C@H]4CN(c5ccc(C#N)c6nccnc56)C[C@@H](C)O4)CC3)n2)C[C@@H]1N` [Example 99, 8-[(2S,6R)-2-[[4-[2-[(3S,4S)-3-amino-4-methoxy-pyrrolidin-1-yl]pyrimidin-4-yl]piperazin-1-yl]methyl]-6-methyl-morpholin-4-yl]quinoxaline-5-carbonitrile], for which the IC50 turned out to be 1 nM.

Regarding `Cc1cc(N2C[C@@H](N)[C@](C)(O)C2)nc(N2CCN(C[C@H]3CN(c4ccc(C#N)c5nccnc45)C[C@@H](C)O3)CC2)n1` [Example 125, 8-[(2S,6R)-2-[[4-[4-[(3R,4R)-4-amino-3-hydroxy-3-methyl-pyrrolidin-1-yl]-6-methyl-pyrimidin-2-yl]piperazin-1-yl]methyl]-6-methyl-morpholin-4-yl]quinoxaline-5-carbonitrile], the IC50 is 2 nM. As for `[2H]c1ccc2c(N3C[C@H](CN4CCN(c5cccc(N6CC(C)(N)C6)n5)CC4)O[C@H](C)C3)ccc(C#N)c2n1` [Example 155, 5-[(2S,6R)-2-[[4-[6-(3-amino-3-methyl-azetidin-1-yl)-2-pyridyl]piperazin-1-yl]methyl]-6-methyl-morpholin-4-yl]-2-deuterio-quinoline-8-carbonitrile], the IC50 was determined as 8 nM. Turning to `[2H]c1ccc2c(N3C[C@H](CN4CCN(c5ccc(N6CC(C)(N)C6)nc5C)CC4)O[C@H](C)C3)ccc(C#N)c2n1` [Example 137, 5-[(2S,6R)-2-[[4-[6-(3-amino-3-methyl-azetidin-1-yl)-2-methyl-3-pyridyl]piperazin-1-yl]methyl]-6-methyl-morpholin-4-yl]-2-deuterio-quinoline-8-carbonitrile], the IC50 stood at 11 nM.

As to `CO[C@@H]1CN(c2nccc(N3CCN(C[C@H]4CN(c5ccc(C#N)c6nccnc56)C[C@@H](C)O4)CC3)n2)C[C@H]1N` [Example 98, 8-[(2S,6R)-2-[[4-[2-[(3R,4R)-3-amino-4-methoxy-pyrrolidin-1-yl]pyrimidin-4-yl]piperazin-1-yl]methyl]-6-methyl-morpholin-4-yl]quinoxaline-5-carbonitrile], the IC50 is 1 nM.

`Cc1cc(N2C[C@@H](N)[C@@H](F)C2)nc(N2CCN(C[C@H]3CN(c4ccc(C#N)c5nccnc45)C[C@@H](C)O3)CC2)n1` [Example 115, 8-[(2S,6R)-2-[[4-[4-[(3R,4S)-3-amino-4-fluoro-pyrrolidin-1-yl]-6-methyl-pyrimidin-2-yl]piperazin-1-yl]methyl]-6-methyl-morpholin-4-yl]quinoxaline-5-carbonitrile]: the IC50 was 1 nM.

For the compound `C[C@@H]1CN(c2ccc(C#N)c3nccnc23)C[C@H](CN2CCN(c3ccnc(N4CC[C@H](N)[C@H](F)C4)n3)CC2)O1` [Example 111, 8-[(2S,6R)-2-[[4-[2-[(3R,4S)-4-amino-3-fluoro-1-piperidyl]pyrimidin-4-yl]piperazin-1-yl]methyl]-6-methyl-morpholin-4-yl]quinoxaline-5-carbonitrile], the IC50 came to 1 nM.

Turning to `Cc1cc(N2CCNCC2)nc(N2CCN(C[C@H]3CN(c4ccc(C#N)c5nccnc45)C[C@@H](C)O3)CC2)n1` [Example 114, 8-[(2R,6S)-2-methyl-6-[[4-(4-methyl-6-piperazin-1-yl-pyrimidin-2-yl)piperazin-1-yl]methyl]morpholin-4-yl]quinoxaline-5-carbonitrile], the IC50 came to 1 nM. The figure for `[2H]c1ccc2c(N3C[C@H](CN4CC(O)(c5ccc(N6CC(C)(N)C6)cc5)C4)O[C@H](C)C3)ccc(C#N)c2n1` [Example 156, 5-[(2S,6R)-2-[[3-[4-(3-amino-3-methyl-azetidin-1-yl)phenyl]-3-hydroxy-azetidin-1-yl]methyl]-6-methyl-morpholin-4-yl]-2-deuterio-quinoline-8-carbonitrile] is 24 nM; for `Cc1cc(N2CCN(C[C@H]3CN(c4ccc(C#N)c5nccnc45)C[C@@H](C)O3)CC2)nc(N2CC(N)C2)n1` [Example 112, 8-[(2S,6R)-2-[[4-[2-(3-aminoazetidin-1-yl)-6-methyl-pyrimidin-4-yl]piperazin-1-yl]methyl]-6-methyl-morpholin-4-yl]quinoxaline-5-carbonitrile] it is 1 nM. The same measure for `Cc1cc(N2CC(N)C2)nc(N2CCN(C[C@H]3CN(c4ccc(C#N)c5nccnc45)C[C@@H](C)O3)CC2)n1` [Example 123, 8-[(2S,6R)-2-[[4-[4-(3-aminoazetidin-1-yl)-6-methyl-pyrimidin-2-yl]piperazin-1-yl]methyl]-6-methyl-morpholin-4-yl]quinoxaline-5-carbonitrile]: 1 nM; for `[2H]c1ccc2c(N3C[C@H](CN4CCN(c5nc(C)cc(N6C[C@H](OC)[C@@H](N)C6)n5)CC4)O[C@H](C)C3)ccc(C#N)c2n1` [Example 134, 5-[(2S,6R)-2-[[4-[4-[(3S,4S)-3-amino-4-methoxy-pyrrolidin-1-yl]-6-methyl-pyrimidin-2-yl]piperazin-1-yl]methyl]-6-methyl-morpholin-4-yl]-2-deuterio-quinoline-8-carbonitrile]: 1 nM. `C[C@@H]1CN(c2ccc(C#N)c3ncccc23)C[C@H](CN2CCC(c3cccc(C4CCNCC4)c3)CC2)O1` [Example 2, 5-[(2R,6S)-2-methyl-6-[[4-[3-(4-piperidyl)phenyl]-1-piperidyl]methyl]morpholin-4-yl]quinoline-8-carbonitrile]: the IC50 came out at 26 nM. The same measure for `[2H]c1ccc2c(N3C[C@H](CN4CCN(c5ccc(N6CC7(CNCCO7)C6)nc5)CC4)O[C@H](C)C3)ccc(C#N)c2n1` [Example 152, 2-deuterio-5-[(2R,6S)-2-methyl-6-[[4-[6-(5-oxa-2,8-diazaspiro[3.5]nonan-2-yl)-3-pyridyl]piperazin-1-yl]methyl]morpholin-4-yl]quinoline-8-carbonitrile]: 17 nM; for `[2H]c1ccc2c(N3C[C@H](CN4CCN(c5nc(C)cc(N6CC(N)C6)n5)CC4)O[C@H](C)C3)ccc(C#N)c2n1` [Example 136, 5-[(2S,6R)-2-[[4-[4-(3-aminoazetidin-1-yl)-6-methyl-pyrimidin-2-yl]piperazin-1-yl]methyl]-6-methyl-morpholin-4-yl]-2-deuterio-quinoline-8-carbonitrile]: 1 nM.

For the compound `C[C@@H]1CN(c2ccc(C#N)n3ncc(F)c23)C[C@H](CN2CC(c3ccc(N4CC(C)(N)C4)nc3)C2)O1` [Example 158, 4-[(2S,6R)-2-[[3-[6-(3-amino-3-methyl-azetidin-1-yl)-3-pyridyl]azetidin-1-yl]methyl]-6-methyl-morpholin-4-yl]-3-fluoro-pyrazolo[1,5-a]pyridine-7-carbonitrile], the IC50 was found to be 37 nM. The figure for `[2H]c1ccc2c(N3C[C@H](CN4CC(c5ccc(N6C[C@H](OC)[C@@H](N)C6)cc5)C4)O[C@H](C)C3)ccc(C#N)c2n1` [Example 140, 5-[(2S,6R)-2-[[3-[4-[(3S,4S)-3-amino-4-methoxy-pyrrolidin-1-yl]phenyl]azetidin-1-yl]methyl]-6-methyl-morpholin-4-yl]-2-deuterio-quinoline-8-carbonitrile] is 25 nM.
